Data published in PubChem BioAssay (NCI).
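96-well plates; 48 h exposure; 5 concentrations. Endpoints by linear interpolation between flanking doses. Not reached: highest tested concentration assigned. GI50: concentration for 50% inhibition of growth. TGI: concentration producing complete growth inhibition.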

Tests used:
Assay in all cases: DTP human tumour cell line panel, 48 h
SN12C renal = tested on: SN12C renal
EKVX NSCLC = tested on: EKVX NSCLC
HS 578T breast = tested on: HS 578T breast
SK-OV-3 ovarian = tested on: SK-OV-3 ovarian
DU-145 prostate = tested on: DU-145 prostate
NCI-H522 lung = tested on: NCI-H522 lung
U251 CNS = tested on: U251 CNS
HT29 colon = tested on: HT29 colon
ACHN renal = tested on: ACHN renal

Row | Compound | TGI (SN12C renal) [µM] | TGI (EKVX NSCLC) [µM] | TGI (HS 578T breast) [µM] | TGI (SK-OV-3 ovarian) [µM] | TGI (DU-145 prostate) [µM] | TGI (NCI-H522 lung) [µM] | TGI (U251 CNS) [µM] | TGI (HT29 colon) [µM] | TGI (ACHN renal) [µM] | GI50 (SN12C renal) [µM] | GI50 (EKVX NSCLC) [µM] | GI50 (HS 578T breast) [µM] | GI50 (SK-OV-3 ovarian) [µM] | GI50 (DU-145 prostate) [µM] | GI50 (NCI-H522 lung) [µM] | GI50 (U251 CNS) [µM] | GI50 (HT29 colon) [µM] | GI50 (ACHN renal) [µM]
1 | Cc1ccc(/C=C2\CN(C)CC3=C2OC(N)=C(C#N)C3c2ccc(C)cc2)cc1 (configuration not stated) | 35.3 | 56.5 | > 100 | 35.3 | 44.7 | > 49.9 | > 61.1 | 34.2 | 50 | – | – | – | – | – | – | – | – | –
2 | CCOC(=O)c1c(C)n(Cc2ccccc2)c(=O)c2ccccc2c(=O)c2c(=O)ccc(=O)c1=2 | > 100 | > 100 | > 100 | > 100 | > 100 | 62.8 | > 100 | > 100 | 77.1 | – | – | – | – | – | – | – | – | –
3 | CCN(CC)c1ccc(/C=C(\C#N)c2nc(N)nc(N3N=C(C)CC3(C)C)n2)cc1 | 71.2 | > 76.2 | 11.4 | 19.9 | 29.3 | 36.5 | 26.1 | > 49.2 | 27.9 | – | – | – | – | – | – | – | – | –
4 | Cc1c(N2C(=O)/C(=C/C=C/c3ccccc3)N=C2c2ccccc2)c(=O)n(-c2ccccc2)n1C | 69 | 36.5 | – | 66.9 | > 100 | 32.6 | 33 | 54 | 34.1 | – | – | – | – | – | – | – | – | –
5 | CC(C)=CCC[C@]1(C)CC[C@]2(C)C3CCC(=C(C)C)[C@@H](CCCO)[C@]3(C)CC[C@@]2(C)C1 (some centres not stated) | > 100 | > 100 | > 100 | > 100 | > 100 | 37.2 | 61.4 | > 100 | > 100 | – | – | – | – | – | – | – | – | –
6 | CSC1=N/C(=C\c2ccc(C)cc2)C(=O)N1CN1CCOCC1 | > 100 | > 100 | > 100 | > 100 | > 100 | > 100 | > 100 | – | > 100 | – | – | – | – | – | – | – | – | –
7 | CCN(CC)C(=S)SS(=O)(=O)c1ccccc1C(=O)O | > 100 | > 100 | > 100 | > 100 | > 100 | > 36.3 | > 100 | > 100 | > 100 | – | – | – | – | – | – | – | – | –
8 | Cc1ccc2c(c1)SSSSS2 | 46.7 | 65.1 | 69.6 | 39.8 | 31.2 | 40.6 | > 100 | 70.6 | 34.9 | – | – | – | – | – | – | – | – | –
9 | CSc1ccc2c(cc1=O)[C@@H](NC(C)=O)CCc1cc(O)c(O)c(O)c1-2 | > 100 | > 100 | – | > 100 | > 100 | 39.3 | 45.3 | 29.2 | 46.8 | – | – | – | – | – | – | – | – | –
10 | COC(CN(C)C(=O)C(C)NC(=O)c1ccccc1)OC (configuration not stated) | > 100 | > 100 | > 100 | > 100 | > 100 | > 100 | > 100 | > 100 | > 100 | – | – | – | – | – | – | – | – | –
11 | O=c1[nH]c2ccc(C(F)(F)F)cc2nc1-c1ccccc1 | > 100 | > 100 | > 100 | – | > 100 | > 100 | – | > 100 | > 100 | – | – | – | – | – | – | – | – | –
12 | NC(=O)NC(=O)c1cnccn1 | > 100 | > 100 | – | > 100 | > 100 | > 100 | > 100 | – | > 100 | – | – | – | – | – | – | – | – | –
13 | CC/C(=N\NC(=O)c1cccnc1)c1ccc2c(c1)OCCO2 | > 100 | > 100 | 93.7 | > 100 | > 100 | 79.5 | > 100 | > 100 | > 100 | – | – | – | – | – | – | – | – | –
14 | CN(C)CCCNc1c(O)c2c(c(O)c1Cl)C(=O)C=CC2=O | 3.2 | > 10 | 3.65 | > 10 | 3.27 | – | 3.46 | 4.27 | > 10 | – | – | – | – | – | – | – | – | –
15 | CN1C2CCC1CC(OC(c1ccccc1)c1ccccc1)C2 (configuration not stated) | > 100 | 91.2 | 33.5 | 47.1 | > 100 | 28.1 | 28.9 | 23 | 59.2 | – | – | – | – | – | – | – | – | –
16 | CCc1ccc(-c2nnc(COc3ccc(-c4nc5ccc(C)cc5[nH]4)cc3OC)o2)cc1 | 5.52 | > 100 | 5.01 | 11.1 | > 100 | 25.2 | 5.79 | > 100 | 3.19 | 2.2 | 4.14 | 2.07 | 3.29 | 5.98 | 3.1 | 2.32 | 3.66 | 1.78
17 | C=C(O)c1ccccc1C#Cc1ccccc1C(=O)OC | > 10 | > 10 | > 10 | > 10 | > 10 | > 10 | > 10 | > 10 | > 10 | – | – | – | – | – | – | – | – | –
18 | CN(C1=NCCO1)c1cccc2ccccc12 | > 10 | > 10 | > 10 | > 10 | > 10 | > 10 | > 10 | > 10 | > 10 | – | – | – | – | – | – | – | – | –
19 | CNc1ncnc(Sc2nc(N)nc3nc[nH]c23)c1[N+](=O)[O-] | 11.9 | 47 | > 43.9 | > 100 | > 100 | 6.76 | 26.9 | > 49.5 | 14.7 | – | – | – | – | – | – | – | – | –
20 | O=C(c1ccccc1)c1ccc(C(c2c(O)c3ccccc3oc2=O)c2c(O)c3ccccc3oc2=O)cc1 | > 77.2 | 72.3 | 64.5 | 38.4 | > 85.7 | 43 | > 78.4 | > 63.5 | 48.6 | – | – | – | – | – | – | – | – | –
21 | O=c1c(O)c(-c2ccc(O)cc2O)oc2cc(O)cc(O)c12 | > 100 | > 100 | > 100 | – | > 100 | – | > 100 | > 100 | > 100 | – | – | – | – | – | – | – | – | –
22 | Clc1ccc(-c2nn3c(CCCCCCCCc4nnc5sc(-c6ccc(Cl)cc6)nn45)nnc3s2)cc1 | > 63.1 | > 83 | > 100 | > 90.4 | > 61.4 | 28.8 | 39.8 | 30.6 | > 100 | – | – | – | – | – | – | – | – | –
